{"source": "ChEMBL document CHEMBL1201862", "about": "“PubChem BioAssay data set” (2004)", "assay_type_in_all_cases": "functional", "key": {"[1]": {"biological_target": "T1, Apoptotic protease-activating factor 1 (Homo sapiens, UniProt O14727)", "T1 sequence (O14727 whole entry)": "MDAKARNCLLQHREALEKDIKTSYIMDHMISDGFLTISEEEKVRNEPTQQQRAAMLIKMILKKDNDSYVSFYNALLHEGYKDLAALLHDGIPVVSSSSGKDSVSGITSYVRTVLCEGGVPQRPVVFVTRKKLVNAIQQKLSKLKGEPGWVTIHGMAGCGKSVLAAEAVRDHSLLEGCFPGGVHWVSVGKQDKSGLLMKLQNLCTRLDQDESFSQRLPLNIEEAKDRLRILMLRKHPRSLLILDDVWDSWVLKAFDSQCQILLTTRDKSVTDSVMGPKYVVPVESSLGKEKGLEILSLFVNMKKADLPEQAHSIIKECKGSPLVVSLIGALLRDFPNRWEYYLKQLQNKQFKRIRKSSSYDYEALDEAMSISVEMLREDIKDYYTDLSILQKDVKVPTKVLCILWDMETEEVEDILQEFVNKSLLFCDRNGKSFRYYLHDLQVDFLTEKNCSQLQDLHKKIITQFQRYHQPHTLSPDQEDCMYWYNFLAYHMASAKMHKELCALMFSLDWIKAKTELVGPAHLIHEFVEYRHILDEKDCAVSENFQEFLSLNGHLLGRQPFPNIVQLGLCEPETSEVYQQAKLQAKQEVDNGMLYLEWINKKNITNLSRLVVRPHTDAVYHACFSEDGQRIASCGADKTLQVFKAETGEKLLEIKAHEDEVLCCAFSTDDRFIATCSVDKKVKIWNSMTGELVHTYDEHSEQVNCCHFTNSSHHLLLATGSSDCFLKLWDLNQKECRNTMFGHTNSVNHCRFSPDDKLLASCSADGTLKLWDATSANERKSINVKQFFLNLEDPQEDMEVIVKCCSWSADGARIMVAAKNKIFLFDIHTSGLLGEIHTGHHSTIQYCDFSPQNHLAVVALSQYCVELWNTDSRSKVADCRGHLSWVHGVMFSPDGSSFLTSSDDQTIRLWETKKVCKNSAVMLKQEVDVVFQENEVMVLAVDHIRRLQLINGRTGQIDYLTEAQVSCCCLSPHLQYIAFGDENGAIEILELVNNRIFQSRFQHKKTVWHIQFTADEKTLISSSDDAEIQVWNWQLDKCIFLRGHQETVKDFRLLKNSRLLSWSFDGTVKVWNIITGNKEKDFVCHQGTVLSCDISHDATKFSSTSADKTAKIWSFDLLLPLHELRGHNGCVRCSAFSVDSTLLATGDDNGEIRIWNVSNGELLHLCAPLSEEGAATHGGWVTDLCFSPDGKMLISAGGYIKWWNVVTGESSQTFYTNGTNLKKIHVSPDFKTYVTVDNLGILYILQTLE"}, "[2]": {"biological_target": "RNA-editing ligase 1, mitochondrial (Trypanosoma brucei brucei, UniProt P86926)", "sequence (P86926 whole entry)": "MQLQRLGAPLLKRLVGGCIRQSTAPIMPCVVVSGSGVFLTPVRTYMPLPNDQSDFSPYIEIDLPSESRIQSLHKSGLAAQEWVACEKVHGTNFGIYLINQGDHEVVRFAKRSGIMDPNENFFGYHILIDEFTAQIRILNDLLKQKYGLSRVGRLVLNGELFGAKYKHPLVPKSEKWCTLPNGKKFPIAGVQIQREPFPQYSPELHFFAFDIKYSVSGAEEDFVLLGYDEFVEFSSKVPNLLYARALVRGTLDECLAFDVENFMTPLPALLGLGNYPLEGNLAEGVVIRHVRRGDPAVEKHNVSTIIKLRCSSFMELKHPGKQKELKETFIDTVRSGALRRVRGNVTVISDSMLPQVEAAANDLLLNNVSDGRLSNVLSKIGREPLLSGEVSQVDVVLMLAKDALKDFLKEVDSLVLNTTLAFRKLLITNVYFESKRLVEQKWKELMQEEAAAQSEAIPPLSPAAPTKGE", "assay": "TbREL1 ligase inhibitors, dose response, biochemical, fluorescence, Trypanosoma brucei (AID 1117295)"}, "[3]": {"biological_target": "RAC-gamma serine/threonine-protein kinase (Homo sapiens, UniProt Q9Y243)"}, "[4]": {"biological_target": "Serine/threonine-protein kinase pim-1 (Homo sapiens, UniProt P11309)", "sequence (P11309 whole entry)": "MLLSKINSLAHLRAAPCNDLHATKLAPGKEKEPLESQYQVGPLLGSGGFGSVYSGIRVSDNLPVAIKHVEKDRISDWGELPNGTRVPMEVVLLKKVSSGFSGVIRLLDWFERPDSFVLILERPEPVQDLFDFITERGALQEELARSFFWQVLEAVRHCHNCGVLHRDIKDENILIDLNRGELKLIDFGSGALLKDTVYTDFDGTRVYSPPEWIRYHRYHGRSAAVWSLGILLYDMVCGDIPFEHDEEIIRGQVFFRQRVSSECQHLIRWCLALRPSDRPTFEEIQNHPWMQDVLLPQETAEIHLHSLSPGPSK"}, "[5]": {"biological_target": "Serine/threonine-protein kinase PAK 1 (Homo sapiens, UniProt Q13153)"}, "[6]": {"biological_target": "Fibroblast growth factor receptor 1 (Homo sapiens, UniProt P11362)", "sequence (P11362 whole entry)": "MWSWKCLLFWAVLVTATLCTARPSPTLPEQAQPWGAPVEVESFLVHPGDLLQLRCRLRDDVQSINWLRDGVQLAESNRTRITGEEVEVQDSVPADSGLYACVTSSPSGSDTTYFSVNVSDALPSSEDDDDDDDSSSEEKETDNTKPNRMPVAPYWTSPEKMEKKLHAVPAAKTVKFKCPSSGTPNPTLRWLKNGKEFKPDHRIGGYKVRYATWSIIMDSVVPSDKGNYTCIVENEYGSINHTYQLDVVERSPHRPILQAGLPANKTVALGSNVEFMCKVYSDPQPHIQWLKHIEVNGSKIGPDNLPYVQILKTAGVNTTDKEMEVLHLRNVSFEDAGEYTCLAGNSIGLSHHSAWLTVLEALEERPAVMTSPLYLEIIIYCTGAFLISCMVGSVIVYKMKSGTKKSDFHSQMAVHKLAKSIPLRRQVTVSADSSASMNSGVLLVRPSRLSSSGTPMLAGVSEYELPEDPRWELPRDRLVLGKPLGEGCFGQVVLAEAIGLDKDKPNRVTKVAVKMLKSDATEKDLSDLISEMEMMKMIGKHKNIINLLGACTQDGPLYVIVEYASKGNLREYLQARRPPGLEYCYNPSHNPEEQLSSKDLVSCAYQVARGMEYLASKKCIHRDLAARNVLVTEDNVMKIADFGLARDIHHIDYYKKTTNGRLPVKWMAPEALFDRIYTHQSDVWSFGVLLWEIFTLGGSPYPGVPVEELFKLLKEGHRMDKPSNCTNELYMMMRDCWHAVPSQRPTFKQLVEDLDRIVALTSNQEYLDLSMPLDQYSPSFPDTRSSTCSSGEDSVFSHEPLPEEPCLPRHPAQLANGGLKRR"}, "LIM domain kinase 1": {"biological_target": "LIM domain kinase 1 (Homo sapiens, UniProt P53667)", "sequence (P53667 whole entry, the tested form may be a part)": "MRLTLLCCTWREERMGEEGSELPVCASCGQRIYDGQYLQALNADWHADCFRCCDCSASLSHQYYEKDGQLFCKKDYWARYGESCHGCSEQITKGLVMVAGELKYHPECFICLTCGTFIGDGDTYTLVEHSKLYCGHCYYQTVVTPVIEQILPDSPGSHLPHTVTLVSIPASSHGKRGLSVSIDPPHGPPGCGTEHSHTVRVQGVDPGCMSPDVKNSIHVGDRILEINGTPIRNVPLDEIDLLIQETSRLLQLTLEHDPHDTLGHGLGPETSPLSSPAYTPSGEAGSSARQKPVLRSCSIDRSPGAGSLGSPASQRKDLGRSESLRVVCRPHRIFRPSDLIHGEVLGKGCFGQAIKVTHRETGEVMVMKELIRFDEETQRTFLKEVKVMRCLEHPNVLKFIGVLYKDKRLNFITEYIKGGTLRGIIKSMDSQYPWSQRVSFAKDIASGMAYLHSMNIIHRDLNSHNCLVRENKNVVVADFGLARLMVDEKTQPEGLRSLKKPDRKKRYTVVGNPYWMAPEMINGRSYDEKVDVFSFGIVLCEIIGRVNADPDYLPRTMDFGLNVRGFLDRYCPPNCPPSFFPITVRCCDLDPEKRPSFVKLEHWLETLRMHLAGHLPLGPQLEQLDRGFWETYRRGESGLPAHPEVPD", "assay": "Navigating the Kinome. Panel member name: LIMK1"}, "[7]": {"biological_target": "MAP/microtubule affinity-regulating kinase 3 (Homo sapiens, UniProt P27448)"}, "[8]": {"biological_target": "High affinity nerve growth factor receptor (Homo sapiens, UniProt P04629)", "sequence (P04629 whole entry)": "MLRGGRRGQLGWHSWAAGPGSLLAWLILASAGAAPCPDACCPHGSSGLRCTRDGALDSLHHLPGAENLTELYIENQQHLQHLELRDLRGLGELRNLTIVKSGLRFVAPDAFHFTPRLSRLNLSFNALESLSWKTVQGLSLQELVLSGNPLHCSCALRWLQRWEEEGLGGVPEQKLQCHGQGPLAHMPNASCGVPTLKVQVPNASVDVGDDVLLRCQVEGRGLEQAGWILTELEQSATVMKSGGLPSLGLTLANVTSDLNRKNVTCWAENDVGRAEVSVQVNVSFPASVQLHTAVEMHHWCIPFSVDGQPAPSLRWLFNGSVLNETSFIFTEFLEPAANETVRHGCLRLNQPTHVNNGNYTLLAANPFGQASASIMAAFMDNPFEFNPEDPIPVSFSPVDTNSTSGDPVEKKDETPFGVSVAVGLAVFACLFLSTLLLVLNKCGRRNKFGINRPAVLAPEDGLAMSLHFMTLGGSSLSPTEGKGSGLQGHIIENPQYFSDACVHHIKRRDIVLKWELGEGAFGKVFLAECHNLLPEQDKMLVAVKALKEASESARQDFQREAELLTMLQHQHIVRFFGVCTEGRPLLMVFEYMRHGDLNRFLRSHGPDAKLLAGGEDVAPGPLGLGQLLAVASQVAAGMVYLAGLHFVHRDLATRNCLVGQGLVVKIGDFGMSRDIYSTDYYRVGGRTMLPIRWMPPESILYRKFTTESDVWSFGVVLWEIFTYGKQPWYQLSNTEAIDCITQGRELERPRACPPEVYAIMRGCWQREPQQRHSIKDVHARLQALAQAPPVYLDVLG"}, "[9]": {"biological_target": "Mitogen-activated protein kinase 13 (Homo sapiens, UniProt O15264)", "sequence (O15264 whole entry)": "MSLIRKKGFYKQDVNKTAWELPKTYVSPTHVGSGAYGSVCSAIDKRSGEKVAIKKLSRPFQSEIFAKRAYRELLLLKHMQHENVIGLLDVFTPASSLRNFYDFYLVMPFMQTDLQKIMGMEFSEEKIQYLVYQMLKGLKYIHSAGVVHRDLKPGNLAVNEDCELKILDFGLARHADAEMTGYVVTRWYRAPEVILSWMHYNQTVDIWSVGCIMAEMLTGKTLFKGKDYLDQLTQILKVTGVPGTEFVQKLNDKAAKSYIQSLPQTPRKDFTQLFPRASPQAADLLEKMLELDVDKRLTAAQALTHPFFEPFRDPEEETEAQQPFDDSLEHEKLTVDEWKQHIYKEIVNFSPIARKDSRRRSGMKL"}, "[10]": {"biological_target": "Protein kinase C gamma type (Homo sapiens, UniProt P05129)"}, "[11]": {"biological_target": "Mitogen-activated protein kinase 1 (Homo sapiens, UniProt P28482)", "sequence (P28482 whole entry)": "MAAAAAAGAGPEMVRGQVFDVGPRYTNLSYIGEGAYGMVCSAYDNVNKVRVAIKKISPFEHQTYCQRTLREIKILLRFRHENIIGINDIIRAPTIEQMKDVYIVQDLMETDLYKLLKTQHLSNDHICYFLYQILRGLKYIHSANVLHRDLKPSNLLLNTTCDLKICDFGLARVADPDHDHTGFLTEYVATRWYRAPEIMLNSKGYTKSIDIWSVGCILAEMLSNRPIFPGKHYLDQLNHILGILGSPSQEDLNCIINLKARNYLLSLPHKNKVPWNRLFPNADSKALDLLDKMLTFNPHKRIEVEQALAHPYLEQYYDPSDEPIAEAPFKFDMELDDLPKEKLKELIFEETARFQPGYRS"}, "Aurora kinase B": {"biological_target": "Aurora kinase B (Homo sapiens, UniProt Q96GD4)"}, "[12]": {"biological_target": "Interleukin-1 receptor-associated kinase 4 (Homo sapiens, UniProt Q9NWZ3)", "sequence (Q9NWZ3 whole entry)": "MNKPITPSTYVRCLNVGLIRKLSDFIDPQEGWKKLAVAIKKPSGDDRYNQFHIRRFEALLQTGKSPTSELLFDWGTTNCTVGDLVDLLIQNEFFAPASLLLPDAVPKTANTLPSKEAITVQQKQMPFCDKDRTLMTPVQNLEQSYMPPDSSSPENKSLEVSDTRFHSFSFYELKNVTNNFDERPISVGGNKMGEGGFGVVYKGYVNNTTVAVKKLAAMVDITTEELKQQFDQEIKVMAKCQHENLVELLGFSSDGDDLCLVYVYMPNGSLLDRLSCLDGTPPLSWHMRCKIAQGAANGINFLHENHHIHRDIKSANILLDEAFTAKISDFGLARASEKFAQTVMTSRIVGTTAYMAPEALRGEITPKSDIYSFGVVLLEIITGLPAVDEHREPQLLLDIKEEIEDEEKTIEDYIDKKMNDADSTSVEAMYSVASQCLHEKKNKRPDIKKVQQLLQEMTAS"}, "[13]": {"biological_target": "Rho-associated protein kinase 1 (Homo sapiens, UniProt Q13464)"}, "[14]": {"biological_target": "Serine/threonine-protein kinase Nek2 (Homo sapiens, UniProt P51955)"}, "[15]": {"biological_target": "Receptor tyrosine-protein kinase erbB-4 (Homo sapiens, UniProt Q15303)"}, "[16]": {"biological_target": "Serine/threonine-protein kinase 3 (Homo sapiens, UniProt Q13188)"}, "BJ": {"tested_on": "BJ", "assay": "cytotoxicity toward BJ-TERT-LT-ST fibroblasts, dose response, cell-based, RAS-independent, luminescence (AID 1935);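 further: BJ fibroblasts immortalized with TERT plus LT and ST oncogenes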", "settings": "Homo sapiens"}, "[17]": {"biological_target": "T2, Ubiquitin-conjugating enzyme E2 N (Homo sapiens, UniProt P61088)", "T2 sequence (P61088 whole entry)": "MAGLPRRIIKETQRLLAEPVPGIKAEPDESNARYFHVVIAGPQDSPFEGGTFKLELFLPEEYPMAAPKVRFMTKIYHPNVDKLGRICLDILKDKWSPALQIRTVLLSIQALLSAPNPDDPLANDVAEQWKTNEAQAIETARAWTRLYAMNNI"}, "[18]": {"biological_target": "Small ubiquitin-related modifier 1 (Homo sapiens, UniProt P63165)", "assay": "inhibitors of SUMO1 partner interactions, dose response, biochemical, FRET (AID 624383)", "settings": "read-out: IC50_Mean"}, "[19]": {"assay": "HeLa cell cytotoxicity, dose response, cytotoxicity control for MgcRacGAP inhibitor project (AID 624300)"}}, "note": "Active and inactive are the calls of the source.", "data": [{"molecule": "CCC(C)NC(=O)c1c(N)n(CCCOC)c2nc3ccccc3nc12", "note": "(stereo not drawn)", "values": [{"measurement": "IC50", "setting": "[1]", "value": "25900 nM (active)"}, {"measurement": "IC50", "setting": "[2]", "value": "15100 nM (inactive)"}]}, {"molecule": "CC(=NNC(=N)N)c1cc(NC(=O)NCCCCCCNC(=O)Nc2cc(C(C)=NNC(=N)N)cc(C(C)=NNC(=N)N)c2)cc(C(C)=NNC(=N)N)c1", "values": [{"measurement": "Ki", "setting": "[3]", "value": "398 nM (active)"}, {"measurement": "Ki", "setting": "[4]", "value": "158 nM (active)"}, {"measurement": "Ki", "setting": "[5]", "value": "398 nM (active)"}, {"measurement": "Ki", "setting": "[6]", "value": "> 5010 nM (inactive)"}, {"measurement": "Ki", "setting": "LIM domain kinase 1", "value": "1260 nM (active)"}, {"measurement": "Ki", "setting": "[7]", "value": "2000 nM (active)"}, {"measurement": "Ki", "setting": "[8]", "value": "> 2510 nM (inactive)"}, {"measurement": "Ki", "setting": "[9]", "value": "> 7940 nM (inactive)"}, {"measurement": "Ki", "setting": "[10]", "value": "631 nM (active)"}, {"measurement": "Ki", "setting": "[11]", "value": "> 7940 nM (inactive)"}, {"measurement": "Ki", "setting": "Aurora kinase B", "value": "1260 nM (active)"}, {"measurement": "Ki", "setting": "[12]", "value": "1580 nM (active)"}, {"measurement": "Ki", "setting": "[13]", "value": "501 nM (active)"}, {"measurement": "Ki", "setting": "[14]", "value": "3160 nM (active)"}, {"measurement": "Ki", "setting": "[15]", "value": "> 3980 nM (inactive)"}, {"measurement": "Ki", "setting": "[16]", "value": "501 nM (active)"}]}, {"molecule": "Cc1cc(N)c2cc(NC(=O)/C=C/c3ccccc3Cl)ccc2n1", "values": [{"measurement": "EC50", "setting": "BJ", "value": "2790 nM (inconclusive)"}, {"measurement": "IC50", "setting": "[17]", "value": "3500 nM (active)"}, {"measurement": "IC50", "setting": "[1]", "value": "9950 nM (active)"}, {"measurement": "IC50", "setting": "[18]", "value": "7510 nM (active)"}, {"measurement": "CC50", "setting": "[19]", "value": "5350 nM (active)"}]}]}
